{"source": "patent US20170340588A1", "about": "“MODULATION OF REGULATORY T CELLS VIA G-COUPLED PROTEIN RECEPTOR 43” (President and Fellows of Harvard College, priority 2013, published 2017)", "key": {"[1]": {"system": "HDAC", "assay": "HDAC expression (RTqPCR) and histone acetylation (Western blot) in cTreg", "format": "cell-based, mice", "settings": "0.1 mM, 24 hours", "procedure": "(§1) Treg were isolated from the colon, small intestine, mesenteric lymph node or spleen of C57BL/6 Foxp3^YFP-Cre mice and FACS-sorted based on expression of YFP. RNA samples were prepared using the RNeasy Mini Kit (Qiagen) and cDNA was synthesized using the Bio-Rad iScript cDNA Synthesis Kit. Real-time (RT)-qPCR was performed using the KAPA SYBR FAST Universal qPCR Kit (KAPA Biosystems) and a Stratagene MX3005P (Agilent Technologies). The following primer sequences were used:\nColonic lamina propria Treg were isolated and whole cell lysates generated using RIPA buffer in the presence of protease inhibitors. Protein lysates were resolved using SDS-PAGE and transferred to PVDF membrane using a Bio-Rad wet transfer apparatus. Blots were probed with antibodies directed against acetyl-histone H3 (K9) and histone H3 (All from Cell Signaling Technologies). After incubation with the appropriate HRP-conjugated antibody, ECL was used for developing. Densitometry analysis of Western blots was performed using Image-J software available on the world wide web at rsbweb.nih.gov/ij/."}, "[2]": {"settings": "mouse, in vivo", "quoted_text": "At the conclusion of the experiment mice were removed from isolators and processed immediately.\nCecal or small intestinal contents were collected immediately after animals were sacrificed and flash frozen in N2(1). Samples were mashed in 500 μl HPLC grade water and centrifuged at >14,000 x g, the resulting supernatant was then passed through a 0.22 μm syringe filter to remove bacterial cells and debris. Samples we then acidified with 1/10 volume of 0.01M H2SO4, heated and passed through a condenser to isolate volatile compounds within a sample. SCFA analyses were performed using an Agilent 1200 series HPLC and a Poroshell 120 SB C18 column (2.7 μm, 3.0×100mm) with guard column (Agilent Technologies). Sulfuric acid (0.01M) was used as the mobile phase. SCFA concentrations were weight corrected."}, "[3]": {"assay": "Stability of SCFA mix in mouse water bottle over time", "format": "physicochemical", "quoted_text": "Mice were treated for 21 days with either sodium acetate (150 mM), sodium propionate (150 mM), sodium butyrate (100 mM) or a SCFA mix (67.5 mM acetate, 40 mM Butyrate, 25.9 mM Propionate) in the drinking water. In in vivo drinking water treatment experiments, control mice received pH and sodium-matched water. At the conclusion of the experiment mice were removed from isolators and processed immediately."}, "[4]": {"system": "T cell transfer colitis", "assay": "T cell transfer model of colitis", "format": "in vivo, mice", "text": "At Day 0, Naive CD4+CD25^−CD45RB^hi splenic T cells were FACS-sorted from BALB/c mice and injected i.p. into 6-8 week old BALB/c RAG2^−/− immunodeficient recipients (5×10^5 cells/mouse). At day 10, BALB/c RAG2^−/− immunodeficient recipients received CD4^+ CD25^+ CD45RB^lo splenic Treg cells (75,000/mouse) isolated from BALB/c or C57BL/6 mice Ffar2^+/+ and Ffar2^−/− mice where indicated. Mice were monitored weekly for weight loss and morbidity for 6-9 weeks as per the protocol's experimental endpoint guidelines.\nColons were excised and cleaned with DPBS prior to fixation in 4% PFA and then processed by routine paraffin embedding, sectioning and H&E staining. Colitis scores were determined by J.N.G., who was blinded to the experimental parameters. Each of 4 histologic parameters were scored as absent (0), mild (1), moderate (2), or severe (3): mononuclear cell infiltraton, polymorphonuclear cell infiltration, epithelial hyperplasia, and epithelial injury. The scores for the parameters were summed to generate the cumulative histologic colitis score as previously described."}, "[5]": {"molecular_target": "T1, Ffar2 (Homo sapiens, UniProt O15552)", "T1 sequence (O15552 1-330)": "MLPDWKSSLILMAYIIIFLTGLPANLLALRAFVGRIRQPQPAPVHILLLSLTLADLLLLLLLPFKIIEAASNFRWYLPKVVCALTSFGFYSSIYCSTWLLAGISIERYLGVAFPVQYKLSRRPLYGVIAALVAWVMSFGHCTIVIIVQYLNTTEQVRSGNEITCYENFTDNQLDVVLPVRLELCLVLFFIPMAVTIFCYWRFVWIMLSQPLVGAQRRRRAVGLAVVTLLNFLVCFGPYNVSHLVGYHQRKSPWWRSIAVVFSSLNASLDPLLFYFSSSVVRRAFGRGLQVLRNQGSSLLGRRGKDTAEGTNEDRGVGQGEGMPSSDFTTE", "settings": "among SCFA; Le Poul et al. 2003; cited from earlier work"}, "[6]": {"system": "colonic Treg (cTreg)", "assay": "Ex vivo RTqPCR of cTreg from in vivo treated mice", "procedure": "Science 341: 1645 (2013). […] Treg were isolated from the colon, small intestine, mesenteric lymph node or spleen of C57BL/6 Foxp3^YFP-Cre mice and FACS-sorted based on expression of YFP. […] Real-time (RT)-qPCR was performed using the KAPA SYBR FAST Universal qPCR Kit (KAPA Biosystems) and a Stratagene MX3005P (Agilent Technologies)."}, "[7]": {"system": "colonic lamina propria Treg", "assay": "In vitro T cell stimulation of colonic Treg (RTqPCR, ELISA, proliferation)", "format": "cell-based, mice", "procedure": "as §1\nColonic lamina propria Treg were isolated from C57BL/6 Foxp3^YFP-Cre mice as described above and FACS-sorted based on expression of YFP. Isolated Treg were cultured in RPMI 1640 medium supplemented with 10% FBS (Gibco), 4 mM L-glutamine, 80 U/ml penicillin, 80 μg/ml streptomycin, 1 mM sodium pyruvate, 10 mM HEPES and 1× nonessential amino acids (all obtained from Cellgro). Treg were stimulated with 1 μg/ml anti-CD3 antibody and with or without 0.1 mM sodium propionate for 24 h at 37° C. The division index is calculated by dividing the total number of cell divisions by the number of cells added at the start of the culture and represents the average number of divisions a cell from the original population has undergone and includes the undivided fraction in the calculation.\nCytokines were measured in culture supernatants using standard cytokines, antibodies and protocols. IL-10 was measured using the BD OptEIA ELISA Kit (BD Biosciences) and TGFβ1 levels were measured using the mouse TGF-beta 1 DuoSet (R&D Systems)."}, "[8]": {"settings": "in vivo treated GF and SPF mice"}}, "data": [{"smiles": "CCC(=O)O", "note": "[Propionate, propionic acid]", "values": [{"measurement": "cTreg expression of HDAC6 and HDAC9", "setting": "[1]; Ffar2+/+", "result": "reduced"}, {"measurement": "cTreg expression of class I HDAC1 and HDAC2 or class IIa HDAC7", "setting": "[1]; Ffar2+/+", "result": "did not reduce"}, {"measurement": "histone acetylation (H3K9)", "setting": "[1]; cTreg, required Ffar2", "result": "enhanced"}, {"measurement": "SCFA levels, SPF SI", "setting": "[2]", "result": "2.69 ± 0.24", "unit": "µmol/g"}, {"measurement": "SCFA levels, SPF SI + P", "setting": "[2]", "result": "12.08 ± 3.69", "unit": "µmol/g"}, {"measurement": "SCFA levels, cecal contents, ASF", "setting": "[2]", "result": "18.83 ± 2.72", "unit": "µmol/g"}, {"measurement": "SCFA levels, cecal contents, GF", "setting": "[2]", "result": "1.46 ± 0.162", "unit": "µmol/g"}, {"measurement": "SCFA levels, cecal contents, GF + Mic", "setting": "[2]", "result": "11.78 ± 6.38", "unit": "µmol/g"}, {"measurement": "SCFA levels, cecal contents, GF + P", "setting": "[2]", "result": "14.93 ± 4.50", "unit": "µmol/g"}, {"measurement": "SCFA levels, cecal contents, SPF", "setting": "[2]", "result": "21.90 ± 0.122", "unit": "µmol/g"}, {"measurement": "SCFA levels, cecal contents, SPF + P", "setting": "[2]", "result": "43.33 ± 12.17", "unit": "µmol/g"}, {"measurement": "SCFA levels, cecal contents, SPF + Vanco", "setting": "[2]", "result": "1.851 ± 1.41", "unit": "µmol/g"}, {"measurement": "SCFA mix in mouse water bottle over time, Input (Day 0)", "setting": "[3]; Day 0", "result": 200, "unit": "mM"}, {"measurement": "SCFA mix in mouse water bottle over time, Day 1", "setting": "[3]; Day 1, input 200 mM", "result": 200, "unit": "mM"}, {"measurement": "SCFA mix in mouse water bottle over time, Day 4", "setting": "[3]; Day 4, input 200 mM", "result": 199.6, "unit": "mM"}, {"measurement": "SCFA mix in mouse water bottle over time, Day 7", "setting": "[3]; Day 7, input 200 mM", "result": 201.24, "unit": "mM"}, {"measurement": "SCFA mix in mouse water bottle over time, Day 10", "setting": "[3]; Day 10, input 200 mM", "result": 202.9, "unit": "mM"}, {"measurement": "SCFA mix in mouse water bottle over time, Day 14", "setting": "[3]; Day 14, input 200 mM", "result": 203.2, "unit": "mM"}, {"measurement": "SCFA mix in mouse water bottle over time, Day 90", "setting": "[3]; Day 90, input 200 mM", "result": 41.9, "unit": "mM"}, {"measurement": "effect on intestinal inflammation (colitis scores)", "setting": "[4]; Ffar2+/+ or Ffar2-/- Treg transferred", "result": "dependent upon Ffar2 expression in Treg"}, {"measurement": "degrees of colonic crypt injury, inflammation, and hyperplasia", "setting": "[4]; H&E, compared to control mice", "result": "reduced degrees"}, {"measurement": "frequency and number of colonic LP Foxp3+ Treg", "setting": "[4]; T cell transfer colitis", "result": "increase"}, {"measurement": "weight loss", "setting": "[4]; naïve T cells and Treg, vs water alone (P<0.0001)", "result": "less severe"}, {"measurement": "mean colitis score", "setting": "[4]; naïve T cells and Treg, water alone 5.1±0.6", "result": "2.0±0.6"}, {"measurement": "affinity for Ffar2", "setting": "[5]", "result": "highest affinity"}, {"measurement": "Foxp3 and IL-10 expression in cTreg", "setting": "[6]; cTreg from GF mice treated in vivo for three weeks", "result": "significant increase"}, {"measurement": "levels of chemokine receptor CCR9 or α4β7 integrin in cTreg", "setting": "[6]; [8]", "result": "not altered"}, {"measurement": "levels of the cTreg homing receptor GPR15", "setting": "[6]; [8]", "result": "increase"}, {"measurement": "Foxp3 and IL-10 expression and IL-10 protein levels", "setting": "[7]; Ffar2+/+ cTreg, 0.1 mM, 24 hours", "result": "enhanced"}, {"measurement": "cTreg proliferation", "setting": "[7]; anti-CD3 and IL-2, 0.1 mM propionate", "result": "enhanced proliferation"}, {"measurement": "Foxp3 and IL-10 expression in cTreg", "setting": "[7]; cTreg from GF mice stimulated 24 hours in vitro, 0.1 mM", "result": "significant increase"}, {"measurement": "IL-10 production", "setting": "[7]; cTreg from GF mice, in vitro 24 hours, 0.1 mM, ELISA", "result": "increased"}, {"measurement": "Foxp3 expression, IL-10 expression and IL-10 protein production", "setting": "[7]; cTreg from SPF mice, 24 hours in vitro, 0.1 mM", "result": "increases"}]}]}
